Assay results: US20220143021A1 (Cardiff Oncology, Inc., priority 2019, published 2022)
“And” between values parts separate entries of the source, which are not always exact repeats. Equal values may be shown once.

Columns and labels:
[1] = test system: human prostate tissues; details: Hennenberg et al., 2018; cited from earlier work
[2] = test system: human prostate tissues; test: organ bath, noradrenaline-induced contractions of human prostate strips
Description: Human prostate tissues were obtained from patients undergoing radical prostatectomy for prostate cancer (n=107). Patients who underwent previous transurethral resection of the prostate (TURP) were excluded. This study was carried out in accordance with the Declaration of Helsinki of the World Medical Association, and has been approved by the ethics committee of the Ludwig-Maximilians University, Munich, Germany (Ethikkommission bei der LMU Munchen, approval number 19-737). Informed consent was obtained from all patients. According to the ethical approval, samples and data were collected and analyzed anonymously, so that no data on patients' characteristics were stored. Samples were taken immediately after prostatectomy, following macroscopical examination by an uro-pathologist. All tissues were taken from the periurethral zone, considering that most prostate cancers arise in the peripheral zone (Pradidarcheep et al., 2011; Shaikhibrahim et al., 2012). […] BPH is present in 80-83% of patients with prostate cancer (Alcaraz et al., 2009; Orsted and Bojesen, 2013). Typically, such tissues show varying content of prostate-specific antigen (PSA), and different contents of smooth muscle and glandular epithelia, reflecting that BPH is present to different degree (Wang et al., 2016a, 2016c). For macroscopic examination and sampling, the prostate was opened by a single longitudinal cut from the capsule to the urethra. Subsequently, both intersections were checked macroscopically for any obvious tumor infiltration. Because tumors are usually located to the peripheral zone, tumor infiltration in the periurethral zone (where sampling was performed) was very rare (found in less than 1% of prostates). Prostates showing tumors in the periurethral zone in macroscopic inspection were not subjected to sampling and were not included in this study. Organ bath studies were performed immediately after sampling, while samples for molecular analyses were shock frozen in liquid nitrogen and stored at −80° C.
Prostate strips (6×3×3 mm) were mounted in 10 ml aerated (95% 02 and 5% CO2) tissue baths (Danish Myotechnology, Aarhus, Denmark), containing Krebs-Henseleit solution (37° C., pH 7.4) with following composition: 118 mM NaCl, 4.7 mM KCl, 2.55 mM CaCl2), 1.2 mM KH2PO4, 1.2 mM MgSO4, 25 mM NaHCO3, 7.5 mM glucose. In each single experiment, two from four strips obtained from the same prostate were allocated to the control group (without inhibitor or antagonist), and two others to the inhibitor/antagonist group (resulting in duplicate determination for each group in each single experiment). All four samples of one experiment were examined in four chambers of the same organ bath. Consequently, control and inhibitor curves in each series/diagram were obtained from the same prostates, but different prostates were examined for different series/diagrams. […] Only one curve was recorded with each sample, i. e. for one agonist, or for electric field stimulation (EFS).
(§1) After mounting in organ bath chambers, preparations were stretched to 4.9 mN and left to equilibrate for 45 min. […] After the equilibration period, maximum contraction induced by 80 mM KCl was assessed. […]

[3] = test system: CK2; details: Valsasina et al., 2012; cited from earlier work
[4] = humans, phase I, even by the lowest dosages tested (Weiss et al., 2018); cited from earlier work
[5] = test system: human prostate tissues; test: organ bath, U46619-induced contractions of human prostate strips; details: 100 nM onvansertib
Description: (§2) Human prostate tissues were obtained from patients undergoing radical prostatectomy for prostate cancer (n=107). Patients who underwent previous transurethral resection of the prostate (TURP) were excluded. This study was carried out in accordance with the Declaration of Helsinki of the World Medical Association, and has been approved by the ethics committee of the Ludwig-Maximilians University, Munich, Germany (Ethikkommission bei der LMU Munchen, approval number 19-737). Informed consent was obtained from all patients. According to the ethical approval, samples and data were collected and analyzed anonymously, so that no data on patients' characteristics were stored. […]
(§3) Prostate strips (6×3×3 mm) were mounted in 10 ml aerated (95% 02 and 5% CO2) tissue baths (Danish Myotechnology, Aarhus, Denmark), containing Krebs-Henseleit solution (37° C., pH 7.4) with following composition: 118 mM NaCl, 4.7 mM KCl, 2.55 mM CaCl2), 1.2 mM KH2PO4, 1.2 mM MgSO4, 25 mM NaHCO3, 7.5 mM glucose. […] Only one curve was recorded with each sample, i. e. for one agonist, or for electric field stimulation (EFS).
as §1

[6] = test system: human prostate tissues; test: organ bath, methoxamine-induced contractions of human prostate strips
Description: as §2, §3, §1

[7] = test system: WPMY-1 cells; test: EdU proliferation assay; format: cell-based, human; details: 24 h
Description: (§4) WPMY-1 cells are an immortalized cell line obtained from human prostate stroma without prostate cancer (Webber et al., 1999). Cells were obtained from American Type Culture Collection (ATCC; Manassas, Va., USA), and kept in RPMI 1640 (Gibco, Carlsbad, Calif., USA) supplemented with 10% fetal calf serum (FCS) and 1% penicillin/streptomycin at 37° C. with 5% CO2. Before addition of onvansertib or DMSO, the medium was changed to a FCS-free medium. For Western blot analysis, cells were lyzed using radioimmunoprecipitation assay (RIPA) buffer (Sigma-Aldrich, St. Louis, Mo., USA), and removed from flasks after 15 min of incubation on ice. Cell debris was removed by centrifugation (10,000 g, 10 min, 4° C.), and different aliquots of supernatants were either subjected to protein determination, or boiled with SDS sample buffer.
WPMY-1 cells were plated with cell line-specific densities (50,000/well) on 16-well chambered coverslips (Thermo Scientific, Waltham, Mass., USA). […] 20 h later, cells were fixed with 3.7% formaldehyde. EdU incorporation was determined using the “EdU-Click 555” cell proliferation assay (Baseclick, Tutzing, Germany) according to the manufacturer's instructions. In this assay, incorporation of EdU into DNA is assessed by detection with fluorescing 5-carboxytetramethylrhodamine (5-TAMRA). Counterstaining of all nuclei was performed with DAPI. Cells were analyzed by fluorescence microscopy (excitation: 546 nm; emission: […]).

[8] = test system: 296 kinases; details: cited from earlier work
[9] = test system: WPMY-1 cells; test: plate colony formation assay; format: cell-based, human; details: 14 days
Description: as §4
Cells were incubated at 37° C. for 14 days, then washed twice with PBS, and fixed by 2 ml of 10% trichloroacetic acid overnight (4° C.). Subsequently, all plates were washed five times with cold water, and stained with 0.4% sulforhodamine B solution (diluted in 1% acetic acid) at room temperature for 30 min. Before taking photos, all plates were labeled and washed five times with 1% acetic acid. The number of colonies containing 50 cells or more was counted under a microscope.

[10] = CCK-8 viability (cytotoxicity) assay; format: cell-based; details: human, WPMY-1 cells (immortalized prostate stromal cells), read-out: decrease of viability
Description: as §4
Viability of cells was assessed using the Cell Counting Kit-8 (CCK-8) (Sigma-Aldrich, St. Louis, Mo., USA). […] Subsequently, cells were grown for different periods (24, 48, 72 h). Separate controls were performed for each period. At the end of this period, 10 μl of [2-(2-methoxy-4-nitrophenyl)-3-(4-nitrophenyl)-5-(2,4-disulfophenyl)-2H-tetrazolium monosodium salt (WST-8) from CCK-8 was added, and absorbance in each well was measured at 450 nm after incubation for 2 h at 37° C.

[11] = test system: human prostate tissues; test: organ bath, endothelin-1-induced contractions of human prostate strips; details: read-out: inhibition of endothelin-1-induced contraction
Description: as §2, §3, §1

[12] = in vivo; cited from earlier work
[13] = test system: human prostate tissues; test: organ bath, ATP-induced contractions of human prostate strips; details: read-out: inhibition of ATP-induced contraction
Description: as §2, §3, §1

[14] = test system: human prostate tissues; test: organ bath, EFS-induced (neurogenic) contractions of human prostate strips
Description: Patients who underwent previous transurethral resection of the prostate (TURP) were excluded. […] Informed consent was obtained from all patients. According to the ethical approval, samples and data were collected and analyzed anonymously, so that no data on patients' characteristics were stored. Samples were taken immediately after prostatectomy, following macroscopical examination by an uro-pathologist. […] For macroscopic examination and sampling, the prostate was opened by a single longitudinal cut from the capsule to the urethra. Subsequently, both intersections were checked macroscopically for any obvious tumor infiltration. […] Prostates showing tumors in the periurethral zone in macroscopic inspection were not subjected to sampling and were not included in this study. Organ bath studies were performed immediately after sampling, while samples for molecular analyses were shock frozen in liquid nitrogen and stored at −80° C.
In each single experiment, two from four strips obtained from the same prostate were allocated to the control group (without inhibitor or antagonist), and two others to the inhibitor/antagonist group (resulting in duplicate determination for each group in each single experiment). All four samples of one experiment were examined in four chambers of the same organ bath. Consequently, control and inhibitor curves in each series/diagram were obtained from the same prostates, but different prostates were examined for different series/diagrams. […] Therefore, and considering that prostate tissues from radical prostatectomy may show considerable heterogeneity, statistical comparisons were only performed between groups within the same series (i. e. containing tissues from the same prostates for inhibitor and control group), but not between series obtained from different prostates (i. e., not across different series of organ bath experiments). Only one curve was recorded with each sample, i. e. for one agonist, or for electric field stimulation (EFS).
Subsequently, chambers were washed three times with Krebs-Henseleit solution for a total of 30 min.
Application of EFS simulates action potentials, resulting in the release of endogenous neurotransmitters, including noradrenaline. […] For EFS, tissue strips were placed between two parallel platinum electrodes connected to a CS4 stimulator (Danish Myotechnology). […] EFS-induced contractile responses were studied at frequencies of 2, 4, 8, 16, and 32 Hz, with train intervals of 30 s between stimulations.
Data analyses and calculations were based on maximum peak heights of contractions. For calculation of agonist- or EFS-induced contractions, tensions were expressed as % of KCl-induced contractions, as this may correct different stromal/epithelial ratios, different smooth muscle content, varying degree of BPH, or any other heterogeneity between prostate samples and patients.

[15] = test system: human prostate tissues; test: organ bath, phenylephrine-induced contractions of human prostate strips
Description: as §2, §3, §1

[16] = washout of onvansertib (100 nM) for 30 min

NC(=O)c1sc2c([N+](=O)[O-])cc(C(F)(F)F)cc2[n+]1[O-] [cyclapolin]
effect on endothelin-1-induced contractions of human prostate tissues [1]: did not change

CN1CCN(c2ccc(OC(F)(F)F)c(Nc3ncc4c(n3)-c3c(c(C(N)=O)nn3CCO)CC4)c2)CC1 [onvansertib, 1-(2-hydroxyethyl)-8-{[5-(4-methylpiperazin-1-yl)-2-(trifluoromethoxy)phenyl]amino}-4,5-dihydro-1H-pyrazolo[4,3-h] quinazoline-3-carboxamide]
inhibition at 0.1 µM ([2]; Homo sapiens): 45 ± 9.7% | inhibition at 1 µM ([2]; Homo sapiens): 41 ± 6.2% | noradrenaline-induced contractions after washout versus DMSO [2, 16]: did not differ | IC50 [3]: 826 nM | plasma concentrations [4]: three-digit nanomolar range | effect on U46619-induced contractions [5]: did not change | inhibition at 0.1 µM [6]: 43 ± 19.4% | decrease of percentage of proliferating cells ([7]; 10 nM): 18±0.1% | decrease of percentage of proliferating cells ([7]; 50 nM): 24±2.1% | decrease of percentage of proliferating cells ([7]; 100 nM): 35±2.0% | kinases inhibited ([8]; tested at 100 nM against 296 kinases): inhibition only of PLK1 | number of kinases with decreases in activities (<50%) ([8]; tested at 1 μM against 296 kinases, including PLK1): 11 | decrease of colony formation ([9]; 10 nM): 39±4.5% | decrease of colony formation ([9]; 50 nM): 89±1.9% | decrease of colony formation ([9]; 100 nM): 97±0.4% | cytotoxicity at 24 h, 10 nM ([10]; 10 nM, 24 h): 15 ± 8.8% | cytotoxicity at 48 h, 10 nM ([10]; 10 nM, 48 h): 28 ± 8.3% | cytotoxicity at 72 h, 10 nM ([10]; 10 nM, 72 h): 40 ± 4.4% | cytotoxicity at 24 h, 100 nM ([10]; 100 nM, 24 h): 63 ± 2.2% | cytotoxicity at 48 h, 100 nM ([10]; 100 nM, 48 h): 86 ± 1.9% | cytotoxicity at 72 h, 100 nM ([10]; 100 nM, 72 h): 89 ± 1.4% | inhibition at 0.1 µM [11]: 45 ± 6.6% | oral bioavailability [12]: good oral bioavailability | inhibition at 0.1 µM [13]: 51 ± 18.6% | inhibition of EFS-induced contraction by add-on of onvansertib, compared to silodosin alone ([14]; 32 Hz, onvansertib 100 nM combined with silodosin 100 nM): 61% and 61±9.8% | inhibition of EFS-induced contraction by add-on of onvansertib, compared to tamsulosin alone ([14]; 32 Hz, onvansertib 100 nM combined with tamsulosin 300 nM): 59% and 59±11.5% | inhibition at 0.1 µM ([14]; Homo sapiens): 34% | inhibition at 1 µM ([14]; Homo sapiens): 34% | EFS-induced contractions after washout versus DMSO [14, 16]: did not differ | inhibition at 0.1 µM [15]: 47 ± 16.2%

C[C@H](Cc1cc2c(c(C(N)=O)c1)N(CCCO)CC2)NCCOc1ccccc1OCC(F)(F)F [silodosin, 1-(3-hydroxypropyl)-5-[(2 R)-2-[2-[2-(2,2,2-trifluoroethoxy)phenoxy]ethylamino]propyl]-2,3-dihydroindole-7-carboxamide, reference compound]
inhibition at 0.1 µM ([2]; Homo sapiens, 100 μM noradrenaline, 100 nM silodosin): 84 ± 4.99% | inhibition of EFS-induced contraction by add-on of silodosin, compared to onvansertib alone ([14]; 32 Hz, silodosin 100 nM combined with onvansertib 100 nM): 68% and 68±12.7% | inhibition at 0.1 µM ([14]; Homo sapiens, 32 Hz, 100 nM silodosin): 47%

COc1ccc(CCNCc2ccc(OCc3ccc(Cl)nc3)c(OC)c2)cc1OC [SBE 13]
effect on endothelin-1-induced contractions of human prostate tissues [1]: did not change

CCOc1ccccc1OCCN[C@H](C)Cc1ccc(OC)c(S(N)(=O)=O)c1 [tamsulosin, 5-[(2 R)-2-[2-(2-ethoxyphenoxy)ethylamino]propyl]-2-methoxybenzenesulfonamide, reference compound]
inhibition at 0.3 µM ([2]; Homo sapiens, 100 μM noradrenaline, 300 nM tamsulosin): 93 ± 3.5% | inhibition of EFS-induced contraction by add-on of tamsulosin, compared to onvansertib alone ([14]; 32 Hz, tamsulosin 300 nM combined with onvansertib 100 nM): 68% and 68±12.2% | inhibition at 0.3 µM ([14]; Homo sapiens, 32 Hz, 300 nM tamsulosin): 48%
